Experimental data as given in patent publication US20050187244A1 (Entire Interest., priority 2004, published 2005).

Experiments:
[1] = powder; cited from earlier work
[2] = Solid form transformation on drying; format: physicochemical; settings: drying under heating, preferably 50 C. overnight under vacuum, about 10-100 mm Hg; monosodium salt
Method: The various forms are related in that drying of one form may lead to another form. Drying may be carried out under ambient or reduced pressure under heating. The temperature during heating is preferably about 40° C. to about 60° C., more preferably about 40° C. to about 50° C. The drying for a few days, such as about two days may be sufficient for transformation. In a preferred embodiment, drying is performed at 50C. overnight under vacuum, about 10-100 mm Hg.
Some solutions were stirred at room temperature; others were heated to the indicated temperature. The precipitate was recovered by filtration and washed with the solvent (5 mL) to obtain a wet sample. A portion of the wet sample was dried overnight in a vacuum at 50° C. at 10-50 mm Hg to obtain a dry sample. The wet and dry samples were analyzed by X-ray diffraction.

[3] = Solid form transformation while stirred in organic solvent (slurry); format: physicochemical; settings: stirred in an organic solvent for more than about 2 days, e.g. dichloromethane and optionally heptane
Description: The various forms are related in that one form may transform to another while in an organic solvent, such as a slurry resulting from crystallization. […] Such transformation occurs for example in a reaction mixture containing dichloromethane and optionally a C5 to C12 hydrocarbon such as heptane.

SMILES | hygroscopicity [1] | form obtained on drying [2] | form transformation in organic solvent [3]
CC(C)(O)c1ccccc1CC[C@@H](SCC1(CC(=O)[O-])CC1)c1cccc(/C=C/c2ccc3ccc(Cl)cc3n2)c1.[Na+] [Montelukast sodium, [R-(E)]-1-[[[1-[3-[2-(7-chloro-2-quinolinyl)ethenyl]phenyl]-3-[2-(1-hydroxy-1-methylethyl)phenyl]propyl]thio]methyl]cyclopropaneacetic acid, monosodium salt] | hygroscopic |  | 
CC(C)(O)c1ccccc1CC[C@@H](SCC1(CC(=O)[O-])CC1)c1cccc(/C=C/c2ccc3ccc(Cl)cc3n2)c1.[Na+] [Form B2, [R-(E)]-1-[[[1-[3-[2-(7-chloro-2-quinolinyl)ethenyl]phenyl]-3-[2-(1-hydroxy-1-methylethyl)phenyl]propyl]thio]methyl]cyclopropaneacetic acid, monosodium salt] |  | Form B1 or form C | 
CC(C)(O)c1ccccc1CC[C@@H](SCC1(CC(=O)[O-])CC1)c1cccc(/C=C/c2ccc3ccc(Cl)cc3n2)c1.[Na+] [Form B1, [R-(E)]-1-[[[1-[3-[2-(7-chloro-2-quinolinyl)ethenyl]phenyl]-3-[2-(1-hydroxy-1-methylethyl)phenyl]propyl]thio]methyl]cyclopropaneacetic acid, monosodium salt] |  | Form C | transforms to Form C
